Measurements as given in the NIST ThermoML archive (doi:10.1021/acs.jced.9b00415).

Settings: for viscosity / mass density: 102 kPa, Liquid; for viscosity: Concentric cylinders viscometry; for mass density: Vibrating tube method

CCCCn1cc[n+](C)c1.O=[N+]([O-])[O-] [1-butyl-3-methylimidazolium nitrate]
Settings	Triple point temperature [K]	mass density [kg/m3]	viscosity [mPa·s]
303.15 K	–	1151.9	148.1
308.15 K	–	1148.7	112.9
313.15 K	–	1145.5	87.87
318.15 K	–	1142.3	69.65
323.15 K	–	1139.2	56.17
328.15 K	–	1136.1	45.97
333.15 K	–	1133.1	38.11
338.15 K	–	1130	32.05
343.15 K	–	1127	27.29
348.15 K	–	1123.9	23.4
353.15 K	–	1120.9	20.29
358.15 K	–	1117.9	17.73
363.15 K	–	1115	15.61
Crystal 1, DSC	308	–	–
Crystal 4, DSC	279	–	–

CCCCn1cc[n+](C)c1.CS(=O)(=O)[O-] [1-butyl-3-methylimidazolium methanesulfonate]
Settings	mass density [kg/m3]	viscosity [mPa·s]
348.15 K	1139.4	36.51
353.15 K	1136.3	30.57
358.15 K	1133.1	25.89
363.15 K	1130	22.16

Settings	Triple point temperature [K]
Crystal, DSC	348

CCCCn1cc[n+](C)c1.[Cl-] [1-butyl-3-methylimidazolium chloride]
Settings	mass density [kg/m3]	viscosity [mPa·s]
343.15 K	1057.5	256.7
348.15 K	1054.8	189.4
353.15 K	1052	142.7
358.15 K	1049.3	109.6
363.15 K	1046.5	85.65

DSC
Settings	Glass transition temperature [°C]	Triple point temperature [K]
Crystal	–	342
Glass	-42	–
